Source: PMC7956643, “Synthesis of Novel Pyrido[1,2-c]pyrimidine Derivatives with 6-Fluoro-3-(4-piperidynyl)-1,2-benzisoxazole Moiety as Potential SSRI and 5-HT1A Receptor Ligands” (International Journal of Molecular Sciences, 2021)

Tests used:
human 5-HT1A receptor = target: T1, human 5-HT1A receptor (Homo sapiens, UniProt P08908); assay: 5-HT1A radioligand binding assay; settings: [3H]-8-OH-DPAT 1 nM; membranes from CHO-K1 cells with human 5-HT1A receptor
T1 construct: purchased PerkinElmer; host or cells: CHO-K1 cells, stably transfected
T1 sequence (P08908 1-422): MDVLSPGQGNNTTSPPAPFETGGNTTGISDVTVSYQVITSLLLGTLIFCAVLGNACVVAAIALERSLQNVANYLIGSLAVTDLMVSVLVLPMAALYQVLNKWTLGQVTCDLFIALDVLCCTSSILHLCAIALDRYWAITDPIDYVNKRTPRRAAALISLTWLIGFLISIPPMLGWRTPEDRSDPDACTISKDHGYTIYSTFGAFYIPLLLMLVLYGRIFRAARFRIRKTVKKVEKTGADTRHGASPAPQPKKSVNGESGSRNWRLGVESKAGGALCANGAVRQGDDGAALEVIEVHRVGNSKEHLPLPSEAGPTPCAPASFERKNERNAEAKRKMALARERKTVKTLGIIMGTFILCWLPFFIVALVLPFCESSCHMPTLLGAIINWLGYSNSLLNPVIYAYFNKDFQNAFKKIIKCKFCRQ
Experimental: Radioligand binding was performed using membranes from CHO-K1 cells stably transfected with the human 5-HT1A receptor (PerkinElmer, Fremont, CA, USA). All assays were carried out in duplicate. Then, 50 µL working solution of the tested compounds, 50 µL [^3H]-8-OH-DPAT (final concentration 1 nM) and 150 µL diluted membranes (20 µg protein per well) prepared in assay buffer (50 mM Tris, pH 7.4, 10 mM MgSO4, 0.5 mM EDTA, 0.1% ascorbic acid) were transferred to a polypropylene 96-well microplate using 96-wells pipetting station Rainin Liquidator (MettlerToledo, Columbus, OH, USA). […] The reaction was terminated by rapid filtration through GF/B filter mate, presoaked with 0.5% polyethyleneimine for 30 min. Ten rapid washes with 200 µL 50 mM Tris buffer (4 °C, pH 7.4) were performed using an automated harvester system—Harvester-96 MACH III FM (Tomtec, Hamden, CT, USA). […] Data were fitted to a one-site curve-fitting equation with Prism 6 (GraphPad Software, San Diego, CA, USA) and Ki values were estimated from the Cheng–Prusoff equation.

5-HT6 receptors = target: T2, 5-HT6 receptors (Homo sapiens, UniProt P50406); assay: 5-HT6 radioligand binding assay; settings: [3H]-LSD; HEK293 cells, human receptor
T2 construct: expressed in transfected cells
T2 sequence (P50406 whole entry): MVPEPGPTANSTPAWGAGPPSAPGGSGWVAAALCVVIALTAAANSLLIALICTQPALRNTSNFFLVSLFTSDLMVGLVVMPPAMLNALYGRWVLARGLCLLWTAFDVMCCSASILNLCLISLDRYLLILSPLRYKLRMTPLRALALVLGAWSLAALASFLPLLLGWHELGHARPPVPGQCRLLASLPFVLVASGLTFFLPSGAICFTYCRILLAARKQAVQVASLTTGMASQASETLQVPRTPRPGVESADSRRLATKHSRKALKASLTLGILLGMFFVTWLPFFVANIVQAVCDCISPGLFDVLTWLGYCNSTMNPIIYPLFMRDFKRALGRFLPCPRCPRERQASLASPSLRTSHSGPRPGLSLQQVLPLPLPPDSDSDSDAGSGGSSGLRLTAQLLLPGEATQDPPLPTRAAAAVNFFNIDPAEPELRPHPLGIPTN
Experimental: In vitro radioligand binding assays for 5-HT2A, 5-HT6, 5-HT7 and D2 receptors were carried out using methods published by Zajdel et al.. For the assays, HEK293 cell cultures stably expressing the investigated human receptors were used. Cell pellets were thawed and homogenized in 20 vol of assay buffer using an Ultra Turrax tissue homogenizer, then centrifuged twice at 35000 g for 20 min at 4 °C, with incubation for 15 min at 37 °C in between. The composition of the assay buffers was as follows: for 5-HT2A receptors—50 mM Tris-HCl, 0.1 mM EDTA, 4 mM MgCl2 and 0.1% ascorbate; for 5-HT6 receptors—50 mM Tris-HCl, 0.5 mM EDTA, 4 mM MgCl2; for 5-HT7 receptors—50 mM Tris-HCl, 4 mM MgCl2, 10 µM pargyline and 0.1% ascorbate; for D2 receptors—50 mM Tris-HCl, 1 mM EDTA, 4 mM MgCl2, 120 mM NaCl, 5 mM KCl, 1.5 mM CaCl2 and 0.1% ascorbate. All assays were incubated in total volume of […] in 96-well microtitre plates for 1 h at 37 °C, except for 5-HT2A receptors which were incubated at room temperature for 1.5 h. The process of equilibration was terminated by rapid filtration through Unifilter plates with a 96-well cell harvester, and radioactivity retained on the filters was quantified on a Microbeta plate reader (PerkinElmer, USA). For displacement studies, the assay samples contained as radioligands (PerkinElmer): 2 nM [^3H]-ketanserin (spec. act. 53.4 Ci/mmol) for 5-HT2A receptors; 2 nM [^3H]-LSD (spec. act. 83.6 Ci/mmol) for 5-HT6 receptors; 0.6 nM [^3H]-5-CT (spec. act. 39.2 Ci/mmol) for 5-HT7 receptors and [^3H]-raclopride (spec. act. 76.0 Ci/mmol) for D2 receptors. […] Each compound was tested in triplicate at 7–8 concentrations (10^-11-10^-4 M). The inhibition constants (Ki) were calculated from the Cheng–Prusoff equation [46]. Results were expressed as means of at least two separate experiments.

[1] = Metabolic stability in pooled human liver microsomes; type: in vitro ADME; settings: pH 7.4, pooled HLMs 1 mg/mL, NADPH, 1 µM compound, 37 °C
Experimental: Stock solutions of studied compounds were prepared at concentration of 100 µM in 1:1 acetonitrile/water mixture. Incubation mixes consisted 1 μM of a studied compound, 100 µM of NADPH in phosphate buffer and 1 mg/mL of pooled HLMs (Sigma-Aldrich, St. Louis, MO, USA) in potassium phosphate buffer (0.1 M, pH 7.4). Incubation was carried out in 96-well plates at 37 °C. Incubation mixtures (excluding compound solution) were subjected to 5 min preincubations, and started by addition of 10 µL of compound stock solution. After 0, 5, 10, 15, and 30 min, 25 µL samples of incubation reaction were added to the equal volume of ice-cold acetonitrile containing 1 µM of IS (buspirone hydrochloride). Control incubations were performed without NADPH to assess possible chemical instability. All samples were immediately centrifuged (10 min, 10,000 rpm) and the resulting supernatant was directly subjected to LC-MS analysis.
LC-MS analysis was performed on an Agilent 1260 system coupled to SingleQuad 6120 mass spectrometer (Agilent Technologies, Santa Clara, CA, USA). A Poroshell C18 EC120 column (3.0 × 100 mm^2, 2.7 μm, Agilent Technologies, Santa Clara, CA, USA) was used in reversed-phase mode with gradient elution starting with 90% of phase A (0.1% formic acid in deionised water) and 10% of phase B (0.1% formic acid in acetonitrile). […]

Row | Ki (human 5-HT1A receptor) [nM] | Ki (5-HT6 receptors) [nM] | half-life at 1 µM [1] [min] | SMILES
1 | 23 ± 1 | 376 ± 58 | 3.61 | O=c1c(-c2ccccc2)c2ccccn2c(=O)n1CCCCN1CCC(c2noc3cc(F)ccc23)CC1 [Compound 6a, 4-Phenyl-2-{4-[4-(6-fluoro-1,2-benzoxazol-3-yl)-1-piperidyl]butyl}-pyrido[1,2-c]pyrimidine-1,3-dione]
2 | 11 ± 1.4 | 709 ± 135 | 3.2 | O=c1c(-c2ccccc2Cl)c2ccccn2c(=O)n1CCCCN1CCC(c2noc3cc(F)ccc23)CC1 [Compound 6d, 4-(2-Chlorophenyl)-2-{4-[4-(6-fluoro-1,2-benzoxazol)-1-piperidyl]butyl}-pyrido[1,2-c]pyrimidine-1,3-dione]
